We go through one molecule from patent US11266662B2, “Ganaxolone for use in prophylaxis and treatment of postpartum depression” (Marinus Pharmaceuticals, Inc., priority 2018, dated 2022).

The AUC is the area under the concentration-time curve, a measure of exposure.

A short description of the data set: Phase 2A study (Magnolia) in women with postpartum depression: ganaxolone plasma concentrations / pharmacokinetics. Conditions: female, human, plasma, iv. The method, then:
Approximately 200 women with PPD 18 to 45 years of age are screened to randomize up to 100 subjects across up to 6 cohorts. Approximately 10-30 subjects are randomized into each cohort. Randomized subjects receive the investigational product (IP), ganaxolone or matching placebo in a 1:1 ratio. In Cohorts 1-5 the IP is administered intravenously over 60 hours. In Cohort 6 the dosing is initiated with a 6-hour intravenous (IV) infusion followed by oral dosing for 28 days plus 3-day taper.
Ganaxolone is infused at a rate of 4 mg/hr (16 ml/h of ganaxolone 0.25 mg/ml solution) for 48 hours and then, to minimize any risks for withdrawal or rebound of anxiety and depression symptoms, at a rate of 2 mg/hr for the next 12 hours. The infusion is stopped at 60 hours. Total of 9 subjects are dosed for this cohort.
Ganaxolone is infused at a rate of 8 mg/hr (16 ml/h of ganaxolone 0.5 mg/ml solution) for 48 hours and then at a rate of 4 mg/hr for the next 12 hours. This dose is approximately double the expected plasma exposure as compared to Cohort 1 at steady state (Cohort 2 expected plasma concentration ˜100-120 ng/mL). The infusion is stopped at 60 hours.
Twelve mg bolus of ganaxolone is initially given over 2 minutes followed by ganaxolone infusion at a rate of 12 mg/hr (24 ml/h of ganaxolone 0.5 mg/ml solution) for 48 hours. The rate is then reduced to 6 mg/hr for the next 12 hours, which is done to minimize any risks for withdrawal or rebound of anxiety and depression symptoms. The infusion is stopped at 60 hours.
In this cohort dosing is initiated with ganaxolone infusion at a rate of 20 mg/hr (40 ml/h of ganaxolone 0.5 mg/ml solution or matching placebo) for 6 hours followed by ganaxolone 900 mg (four 225 mg capsules per dose) or matching placebo capsules given orally at dinner time for 28 days followed by a 3-day taper (three, two, and one 225 mg capsule(s) per day, respectively).
This initial infusion is targeted to provide a fast onset of antidepressant activity by delivery of rapid plasma exposures to ganaxolone. Then, at dinner time of Day 1 the subjects take their first oral dose of ganaxolone 900 mg (four 225 mg capsules) or matching placebo (4 capsules). […] In previous studies, ganaxolone has been given up to a daily dose of 2000 mg, and at single doses of 1000 mg.
Six samples are collected for pharmacokinetic analysis in Cohorts 1-5 and 12 samples in Cohort 6. […] Seven samples are collected during the inpatient phase of Cohort 6 (including 6 samples on Day 1) followed by collection of 5 samples during the outpatient phase during the study visits for a total of 12 samples in Cohort 6.

Each structure is given as a SMILES string.

Consider `CC(=O)[C@H]1CC[C@H]2[C@@H]3CC[C@H]4C[C@](C)(O)CC[C@]4(C)[C@H]3CC[C@]12C` [ganaxolone, 3α-hydroxy-3β-methyl-5α-pregnan-20-one], for which the AUC (86 ug/kg, AUC12-24, calculated from Table 1C, dose 86 μg/kg/hr (row order of Table 1C)) is 1040 ng·h/mL; the exposure (AUC) (86 ug/kg, AUC12-48, calculated from Table 1C, dose 86 μg/kg/hr (row order of Table 1C)) was 3340 ng·h/mL; the AUC (86 ug/kg, AUC24-48, calculated from Table 1C, dose 86 μg/kg/hr (row order of Table 1C)) is 2300 ng·h/mL; the AUC (150 ug/kg, AUC12-24, calculated from Table 1C, dose 150 μg/kg/hr (row order of Table 1C)) is 1810 ng·h/mL; the AUC (150 ug/kg, AUC12-48, calculated from Table 1C, dose 150 μg/kg/hr (row order of Table 1C)) is 5820 ng·h/mL; the AUC (150 ug/kg, AUC24-48, calculated from Table 1C, dose 150 μg/kg/hr (row order of Table 1C)) was 4010 ng·h/mL. Moreover, the AUC reads like this: (160 ug/kg, AUC12-24, calculated from Table 1C, dose 160 μg/kg/hr (row order of Table 1C)) 1930 ng·h/mL; (160 ug/kg, AUC12-48, calculated from Table 1C, dose 160 μg/kg/hr (row order of Table 1C)) 6210 ng·h/mL; (160 ug/kg, AUC24-48, calculated from Table 1C, dose 160 μg/kg/hr (row order of Table 1C)) 4280 ng·h/mL; (170 ug/kg, AUC12-24, calculated from Table 1C, dose 170 μg/kg/hr (row order of Table 1C)) 2050 ng·h/mL; (170 ug/kg, AUC12-48, calculated from Table 1C, dose 170 μg/kg/hr (row order of Table 1C)) 6600 ng·h/mL; (170 ug/kg, AUC24-48, calculated from Table 1C, dose 170 μg/kg/hr (row order of Table 1C)) 4550 ng·h/mL. Further, the AUC was 2170 ng·h/mL (180 ug/kg, AUC12-24, calculated from Table 1C, dose 180 μg/kg/hr (row order of Table 1C)); 6980 ng·h/mL (180 ug/kg, AUC12-48, calculated from Table 1C, dose 180 μg/kg/hr (row order of Table 1C)); 4820 ng·h/mL (180 ug/kg, AUC24-48, calculated from Table 1C, dose 180 μg/kg/hr (row order of Table 1C)); 2290 ng·h/mL (190 ug/kg, AUC12-24, calculated from Table 1C, dose 190 μg/kg/hr (row order of Table 1C)); 7370 ng·h/mL (190 ug/kg, AUC12-48, calculated from Table 1C, dose 190 μg/kg/hr (row order of Table 1C)); 5080 ng·h/mL (190 ug/kg, AUC24-48, calculated from Table 1C, dose 190 μg/kg/hr (row order of Table 1C)). Moreover, the AUC is, setting by setting: (200 ug/kg, AUC12-24, calculated from Table 1C, dose 200 μg/kg/hr (row order of Table 1C)) 2410 ng·h/mL; (200 ug/kg, AUC12-48, calculated from Table 1C, dose 200 μg/kg/hr (row order of Table 1C)) 7760 ng·h/mL; (200 ug/kg, AUC24-48, calculated from Table 1C, dose 200 μg/kg/hr (row order of Table 1C)) 5350 ng·h/mL; (210 ug/kg, AUC12-24, calculated from Table 1C, dose 210 μg/kg/hr (row order of Table 1C)) 2530 ng·h/mL; (210 ug/kg, AUC12-48, calculated from Table 1C, dose 210 μg/kg/hr (row order of Table 1C)) 8150 ng·h/mL.
